Assay results from US11603380B2 (Centre national de la recherche scientifique, priority 2018, dated 2023).
Where two headings read alike, the source gives them in different places.

Legend:
[1] = test system: VZV-BAC-Luc strain (wild type); test: microbe, parasite or virus in culture; type: cell-based, varicella zoster virus; settings: read-out: approximate EC50, wild type VZV
[2] = test system: VZV-BAC-Luc in human fetal skin; test: Human skin organ culture model of VZV replication; type: cell-based, varicella zoster virus; settings: for VZV yield in skin organ culture compared to vehicle: Day 11, cidofovir 5 μM, 5 at 1 and 5 μM (p<0.0001 vs vehicle)
VZV-BAC-Luc = test: SCID-Hu mouse model of VZV replication (human fetal skin xenografts); type: in vivo, CB.17 scid/beige male mice; settings: for VZV spread / virus yield (Total Flux) vs Vehicle: once daily Days 0-8, 5 26 mg/kg subcutaneous, cidofovir 10 mg/kg intraperitoneal, yield compared Day 9, p=0.0051
Experimental: SCID-Hu mouse model of VZV replication. CB.17 scid/beige male mice (Charles River) were implanted subcutaneously with human fetal skin (the same type of specimens used for the skin organ culture assay). After 3-4 weeks engraftment, the skin implants were inoculated with VZV-BAC-Luc or VZV-ORF57-Luc. The mice were divided into groups (N=10-13) for treatment or controls. The positive control antiviral drug was cidofovir, 10 mg/kg/day given by intraperitoneal injection. The negative control was the vehicle Cremophor-DMSO-saline (1:1:8) given by subcutaneous injection. The treatment groups were 5 in Cremophor-DMSO-saline, 26, 13, or 6.5 mg/kg/day, given by subcutaneous injection. Treatment began 2 hours or 3 days after the inoculation surgery and continued daily or alternating days for up to 9 days. The mice were scanned in the IVIS-200 instrument daily from Day 1-10. The mice were weighed before the start of the study and daily during the treatment phase.
Statistical analysis: The results were analyzed for statistical significance by Student's t test or by ANOVA and Dunnett's post hoc test of multiple comparisons (GraphPad Prism).
CB.17 scid/beige male mice were implanted subcutaneously with human fetal skin (the same type of specimens used for the skin organ culture assay). After 3-5 weeks engraftment period, the skin implants were inoculated with VZV-BAC-Luc. The mice were divided into 3 groups of 10-13 mice: vehicle (Cremophor-DMSO-saline 1:1:8), cidofovir 10 mg/kg in saline, and 5 26 mg/kg in Cremophor-DMSO-saline. 5 at 26 mg/kg is the molar equivalent dose to cidofovir 10 mg/kg. Cidofovir was given by the intraperitoneal route, once daily, from Days 0-8. Vehicle and 5 were given by the subcutaneous route, once daily, from Days 0-8. The mice were scanned in the IVIS-200 instrument daily from Day 1-9 and the Total Flux values indicated VZV-infected cells in the skin xenografts (FIG. 3). […] VZV grew normally in the Vehicle group.
In addition, a dose-ranging and delayed treatment assay was included to determine the lowest effective dose (FIGS. 5A and 5B). As before, 5 26 mg/kg was given once daily, by the subcutaneous route, from Days 0-6. This group was compared to Vehicle (Cremophor-DMSO-saline). In the dose ranging assay, 5 high dose (26 mg/kg), medium dose (13 mg/kg) or low dose (6.5 mg/kg) was given once daily, by the subcutaneous route, from Days 3-9. The treatment phase was delayed to Day 3 because this is more clinically relevant.

Vaccinia Virus = test: microbe, parasite or virus in culture; type: cell-based; settings: read-out: EC50 Vaccinia Virus
HSV-2 (G) = test: microbe, parasite or virus in culture; type: cell-based, herpes simplex virus 2; settings: read-out: EC50 HSV-2 (G)
[3] = test system: herpes simplex virus 1 (HSV-1) (KOS); test: microbe, parasite or virus in culture; type: cell-based; settings: read-out: EC50 HSV-1 (KOS)
HSV-1 (KOS ACV) TK− = test: microbe, parasite or virus in culture; type: cell-based, herpes simplex virus 1
[4] = test system: human cytomegalovirus (HCMV) (Davis); test: microbe, parasite or virus in culture; type: cell-based; settings: read-out: EC50 HCMV (Davis)
[5] = test system: human cytomegalovirus (HCMV) (AD-169); test: microbe, parasite or virus in culture; type: cell-based; settings: read-out: EC50 HCMV (AD-169)
[6] = test system: VZV-BAC-Luc TK− strain (ACV^R); test: microbe, parasite or virus in culture; type: cell-based, varicella zoster virus; settings: read-out: approximate EC50, ACV^R VZV
in vitro = settings: human, Cytotoxicity CC50
[7] = Weight and condition of mice during treatment in the SCID-Hu model; settings: for change in weight during the treatment phase: first study, Days 0-8, 5 26 mg/kg sc, cidofovir 10 mg/kg ip
HBV = test: Anti-HBV activity, Huh7 cells transfected with pHBV1.1×, intra-capsid viral DNA by real-time PCR; type: cell-based, Hepatitis B virus; settings: 7 days, read-out: IC50 (HBV replication) (converted)
[8] = test system: HSV-1, HSV-2, HSV-1 (TK−), VV, FHV; type: cell-based
Equine Herpes V 4 = test: Virus infection assay, Equine Herpes V 4, permissive cells; type: cell-based
Experimental: (§1) 2. Virus Infection (Protocols for: Adeno Virus, Cytomegalo Virus, Poxvirus, Myxo Virus, Equine Herpes Virus)
(§2) Cognate permissive cell lines were used for each virus infection assay.
(§3) Cells were grown in DMEM without phenol red (Sigma-Aldrich) 10% SVF, Pen-strep, 1× sodium pyruvate, 1× Glutamax.
(§4) Virus infection was carried out on permissive cells seeded in either in 96 wells plate or in 6 well plates, in duplicate at one or two MOI (multiplicity of infection) and 7 concentrations of LA6. • Day 0: cells seeded at 10 k per well in Corning Glass Bottom 96 well plates in 200 μl of DMEM without phenol red or 200 k in 6 well plates. • Day 1: cells were treated with LA6 (from 1 to 0.0037 μM by […] dilutions) in duplicate and were infected at different MOI according to the tested virus • Day 2 to day 7: cells were fixed with Formalin 10 min at room temperature. Cells were washed with 200 μL PBS and 100 μL PBS/Hoechst® 33342 (1/1000) per well. 96 well plates were kept at 4° C. in the dark until data acquisition Image acquisition and analysis for high content quantification was performed on a Thermo Cellomics Arrayscan™ VTI microscope using a modified compartmental analysis algorithm for fluorescent virus. For unmodified virus, ECP progression or plaque count was determined visually by double blind analysis.

Feline Herpes Virus = test: organism not typed; type: cell-based; settings: read-out: EC50 Feline Herpes Virus
Adeno virus = test: Virus infection assay, Adeno virus, permissive cells; type: cell-based
Experimental: as §1, §2, §3, §4

[9] = test system: varicella-zoster virus (VZV) TK+ (OKA); test: microbe, parasite or virus in culture; type: cell-based; settings: read-out: EC50 VZV TK+ (OKA)
Vaccinia Virus TK− = type: cell-based
Myxomatosis Virus (MYXV) = type: cell-based
HEL cells = settings: read-out: Cytotoxicity CC50; concentration reducing cell growth by 50%; HCMV/VZV table
Equine Herpes V 1 = type: cell-based, Equine herpes virus
[10] = Human alphaherpesvirus 3, ARPE-19, 72 h
[11] = ARPE-19 cells, 3 days, bioluminescence, estimated by interpolation

Nc1ccn(C[C@@H](CO)OCP(=O)(O)O)c(=O)n1 [Cidofovir, reference compound]
EC50 [1, 10]: ~2500 nM
VZV yield in skin organ culture compared to vehicle [2]: effective
VZV spread / virus yield (Total Flux) vs Vehicle (VZV-BAC-Luc): prevented VZV spread
EC50 (Vaccinia Virus; Orthopoxvirus vaccinia, HEL): 112 µM
EC50 (HSV-2 (G); Human alphaherpesvirus 2, HEL): 1000 nM
EC50 ([3]; Human alphaherpesvirus 1, HEL): 4500 nM
EC50 (HSV-1 (KOS ACV) TK−; Human alphaherpesvirus 1, read-out: EC50 HSV-1 (KOS ACV) TK−): 2800 nM
EC50 ([4]; Human betaherpesvirus 5, HEL): 1000 nM
Cytotoxicity MCC (HEL cell cultures; human): >100 µM
EC50 ([5]; Human betaherpesvirus 5, AD169, HEL): 1200 nM
EC50 [6, 10]: ~2500 nM
CC50 (in vitro): > 100 µM
change in weight during the treatment phase [7]: moderate weight loss

[(E)-2-[(2,6-diaminopyrimid in-4-yl)oxymethyl]-4-[3-hexadecoxypropoxy (isopropoxycarbonyloxymethoxy)phosphoryl]but-2′-enyl]acetate [Compound 13]
IC50 (HBV): 1600 nM

[(Z)-2-[(2,6-diaminopyrimidin-4-yl)oxymethyl]-4-[3-hexadecoxypropoxy (isopropoxycarbonyloxymethoxy)phosphoryl]but-2′-enyl]acetate [Compound (5)]
EC50 [1, 11]: ~10 nM
VZV yield in skin organ culture compared to vehicle [2]: effective
concentration preventing VZV spread in skin ([2]; skin organ culture): ≥ 1 µM
activity level against HSV-1, HSV-2, HSV-1 (TK−), VV, FHV [8]: micromolar and sub-micromolar activities
EC50 ([8]; read-out: EC50 against both tested viruses): < 350 nM
antiviral effect, delayed treatment, low dose (VZV-BAC-Luc; 6.5 mg/kg once daily subcutaneous Days 3-9, yield Day 10 p=0.029): equally effective
antiviral effect, delayed treatment, medium dose (VZV-BAC-Luc; 13 mg/kg once daily subcutaneous Days 3-9, yield Day 10 p=0.029): equally effective
Virus yield on Day 7 vs Vehicle (VZV-BAC-Luc; 26 mg/kg once daily subcutaneous Days 0-6, p=0.008): significantly less than the Vehicle group
antiviral effect, delayed treatment, high dose (VZV-BAC-Luc; 26 mg/kg once daily subcutaneous Days 3-9, yield Day 10 p=0.029): also effective
VZV spread / virus yield (Total Flux) vs Vehicle (VZV-BAC-Luc): prevented VZV spread
low dose effectively preventing VZV spread (VZV-BAC-Luc; once daily subcutaneous Days 3-9): 6.5 mg/kg
EC50 (Equine Herpes V 4): < 125 nM
EC50 (Vaccinia Virus): 0.115 ± 0.11 µM
EC50 (Feline Herpes Virus): 350 nM
EC50 (HSV-2 (G)): 15 nM
EC50 [3]: 43 ± 37 nM
EC50 (HSV-1 (KOS ACV) TK−; read-out: EC50 HSV-1 (KOS ACV) TK−): 8 ± 2 nM
EC50 [4]: 700 nM
EC50 (Adeno virus): < 37 nM
EC50 (Adeno virus; text statement): < 37 nM
EC50 [9]: 3.5 nM
Cytotoxicity MCC (HEL cell cultures): 60 µM
EC50 [5]: 1790 nM
EC50 [6, 11]: ~10 nM
IC50 (HBV): 400 nM
EC50 (Vaccinia Virus TK−; read-out: EC50 Vaccinia Virus TK−): < 30 nM
EC50 (Vaccinia Virus TK−; read-out: EC50 vaccicnia virus TK-): < 30 nM
change in weight during the treatment phase [7]: did not cause weight loss
overt toxicity (weight and condition of the mice) ([7]; repeat and dose-ranging study, 6.5-26 mg/kg sc): did not cause overt toxicity
EC50 (Myxomatosis Virus (MYXV)): 51 nM
CC50 (HEL cells): 660 nM
EC50 (Equine Herpes V 1): < 125 nM
